Experimental data from US20050050594A1, “Tryptophan synthase as a site of herbicide action” (priority 1999, published 2005).
Read-outs that look alike come from different tables or passages of the source.

Assays:
[1] = molecular target: T1, Salmonella typhimurium tryptophan synthase holoenzyme (α2β2), TSα reaction (Salmonella typhimurium, UniProt P00929); assay: Inhibition of tryptophan synthase by the TSα reaction, microtiter kinetic coupled enzyme assay; type: biochemical; settings: for activity in enzyme inhibitory assays, relative to inhibitors 1-5: comparison within the series of inhibitors 1 to 5
T1 construct: made in house; host or cells: E. coli strain CB149pSTB7
T1 sequence (P00929 whole entry): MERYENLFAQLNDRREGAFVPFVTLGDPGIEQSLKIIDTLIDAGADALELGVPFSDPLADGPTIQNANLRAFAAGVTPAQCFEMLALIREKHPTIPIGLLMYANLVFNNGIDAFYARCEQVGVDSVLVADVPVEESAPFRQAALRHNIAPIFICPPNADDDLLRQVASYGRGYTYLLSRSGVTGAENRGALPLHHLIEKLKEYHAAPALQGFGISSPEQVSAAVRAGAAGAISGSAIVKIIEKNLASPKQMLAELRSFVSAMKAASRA
T1 sequence (P0A2K1 2-397, further chain): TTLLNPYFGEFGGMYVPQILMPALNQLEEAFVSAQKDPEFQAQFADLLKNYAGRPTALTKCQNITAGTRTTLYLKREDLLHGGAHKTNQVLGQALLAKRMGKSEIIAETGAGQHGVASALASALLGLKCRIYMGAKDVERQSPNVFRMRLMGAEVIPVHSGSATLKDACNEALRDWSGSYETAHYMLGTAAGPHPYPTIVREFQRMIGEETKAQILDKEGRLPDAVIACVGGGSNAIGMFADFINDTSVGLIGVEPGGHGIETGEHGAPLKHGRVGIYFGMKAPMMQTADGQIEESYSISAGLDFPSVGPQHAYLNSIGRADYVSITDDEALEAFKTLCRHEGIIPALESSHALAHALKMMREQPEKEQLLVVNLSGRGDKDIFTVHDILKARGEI
Description: Inhibitors of TS were identified by their ability to inhibit the production of glyceraldehyde-3-P by the TSα reaction of the Salmonella typhimurium holoenzyme (α2β2) in the presence of a limiting amount of indole-3-glycerolphosphate and an excess of serine
The assay was developed as a new microtiter plate kinetic enzyme assay based on the combined methods of Creighton (EurJBch 13:1-10, 1970) and Creighton and Yanofsky (JBC 241:980, 1966) with modifications. The rate of glyceraldehyde production was measured as the linear […] (spectrophotometric absorbance at 340 nm) in the presence of glyceraldehyde-3-phosphate dehydrogenase in a coupled enzyme assay.
The assay solution contained a test inhibitor compound, 50 mM Tris-Cl (pH 7.8), 6 mM sodium arsenate, 5 μg/ml pyridoxal phosphate, 0.5 mM DTT, 0.18M NaCl, 60 mM serine, 1.6 mM NAD+, 8 e.u./ml yeast glyceraldehyde-3-phosphate dehydrogenase (Sigma, Catalog #G2647; Kirschner et al., Eur J Bch, 1975, 60:513 and approximately 1.5 e.u. Salmonella TS. 100 μM IGP was added to start the reaction, which was run at 37° C. and using 300 μl per assay in a microtiter plate.
The substrate IGP was used at 1.5 to 2 times its Km concentration to enhance the likelihood of identifying weak inhibitors, binding at the substrate binding site. This approach to identifying enzyme inhibitors was novel, since an excess of all substrates, (at least 5-times the Km value of each), is conventionally used in the measurement of enzyme activity.
Potential inhibitors were evaluated by adding 100 μM inhibitor (equimolar to substrate IGP):or less, in a 1:1 dilution series down from 100 μM, until the inhibition measured was less than 15%. Reaction rates at Vmax were compared in the presence and absence of inhibitors.
In addition, some weaker inhibitors were identified following preincubation of the inhibitor with the TS assay mix for 24 hrs prior to the addition of IGP. The identifying weaker inhibitors is to aid in a quantitative structure activity relationship (QSAR) evaluation, or to identify new herbicidal inhibitor leads. The previously known inhibitor IPP was used as a standard in all tests, where the I50 for IPP was 1-2 uM.

[2] = test system: a variety of dicotyledonous and monocotyledonous plants; assay: Postemergence greenhouse herbicidal test; type: in vivo; settings: for activity in herbicidal (biological) assays, relative to inhibitors 1-5: comparison within the series of inhibitors 1 to 5
Procedure: The herbicidal activity of the compounds was tested as described in the U.S. Pat. No. 5,635,449. […] In the tests, seedling plants are grown in jiffy flats for about two weeks. The test compounds are dispersed in 50/50 acetone/water mixtures containing 0.5% TWEEN®20, a polyoxyethylene sorbitan monolaurate surfactant of Atlas Chemical Industries, in sufficient quantities to provide the equivalent of about 1.0 kg to 8.0 kg per hectare of test compound when applied to the plants through a spray nozzle operating at 40 psi for a predetermined time. After spraying, the plants are placed on greenhouse benches and are cared for in the usual manner, commensurate with conventional greenhouse practices. From four to five weeks after treatment, the seedling plants are examined and rate according to the rating system set forth below.

Arabidopsis TS enzyme = molecular target: T2, Arabidopsis TS enzyme (Arabidopsis thaliana, UniProt Q42529); assay: TSα assay with recombinant plant TSα and TSβ expressed in E. coli; type: biochemical; settings: inhibitor 82 uM; pAC 758 (1.5 ug) + pAC 755 (3 ug)
T2 construct: GST (N, cleaved yes); made in house; host or cells: E. coli DH5α (pGEX-2T constructs)
T2 sequence (Q42529 with tags, fused parts or gaps): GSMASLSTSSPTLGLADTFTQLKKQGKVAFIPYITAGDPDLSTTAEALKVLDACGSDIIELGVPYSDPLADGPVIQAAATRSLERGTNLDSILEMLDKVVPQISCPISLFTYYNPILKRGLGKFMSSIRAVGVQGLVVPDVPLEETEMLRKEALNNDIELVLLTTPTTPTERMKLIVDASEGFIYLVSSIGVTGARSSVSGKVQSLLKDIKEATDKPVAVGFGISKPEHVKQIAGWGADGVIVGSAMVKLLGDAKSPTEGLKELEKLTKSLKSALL
T2 sequence (P14671 with tags, fused parts or gaps partner): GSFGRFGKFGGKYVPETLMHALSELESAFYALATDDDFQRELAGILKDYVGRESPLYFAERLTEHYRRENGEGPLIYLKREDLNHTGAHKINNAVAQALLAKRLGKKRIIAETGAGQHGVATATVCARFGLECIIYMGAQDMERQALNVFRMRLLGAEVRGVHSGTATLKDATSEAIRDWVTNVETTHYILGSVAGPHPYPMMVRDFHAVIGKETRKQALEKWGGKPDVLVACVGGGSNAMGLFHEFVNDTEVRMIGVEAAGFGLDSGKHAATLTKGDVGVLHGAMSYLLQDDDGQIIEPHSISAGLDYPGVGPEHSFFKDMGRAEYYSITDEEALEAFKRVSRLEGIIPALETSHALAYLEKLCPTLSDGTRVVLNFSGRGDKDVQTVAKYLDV
Procedure: The plant TS proteins were expressed as fusion proteins with glutathione transferase (GST) to facilitate purification. After purification, the GST protein was cleaved off with thrombin as described above before the plant TS assays were performed. After thrombin cleavage, both TSα and TSβ-subunit proteins retained a Gly-Ser residue on the N-terminal of the protein in addition to the TS sequence. […]
The TSα enzyme assay was conducted as described in Example 3 for Salmonella TSα.
Specifically, phenylthiophosphonic acid compounds were used. The TSα assay conditions were as described for Salmonella TSα in Example 3 except that recombinant plant proteins were used instead of the Salmonella enzyme.

Synechocystis PCC 6803 = assay: End-product reversal in Synechocystis, culture growth in liquid medium; type: cell-based; settings: for Culture density (%) / Culture density as A420: four days
Description: Synechocystis is a unicellular green organism that is actually a photosynthetic bacterium, with a photosynthetic system very similar to that of higher plant chloroplasts. Culture growth of Synechocystis could be inhibited by a compound of the present invention, and the growth inhibition could be prevented in the presence of tryptophan.

Arabidopsis thaliana = assay: Herbicidal activity and tryptophan reversal on Arabidopsis grown on agar medium; type: in vivo; set-up: key: 0 - no effect; 9 - total kill; C - chlorotic seedlings 4-6 days after treatment
Procedure: In this experiment, TS inhibitors were tested on Arabidopsis thaliana grown Murashige minimal organics medium, (obtained from Life Technologies, Grand Island, N.Y.), containing 0.7% agar. Compounds were tested at different concentrations to assess their herbicidal activity.

[3] = inhibitor 62 μM, +tryptophan 31 μM
[4] = inhibitor 62 μM, +tryptophan 62 μM
[5] = inhibitor 125 μM, +tryptophan 31 μM
[6] = inhibitor 125 μM, +tryptophan 62 μM
[7] = inhibitor 125 μM, no tryptophan
[8] = I50 TS, TSα reaction of the highly purified Salmonella typhimiurium holoenzyme
[9] = post emergence greenhouse test, 4 kg/ha
[10] = I50 TS, TSα reaction of Salmonella holoenzyme

Nc1ccccc1SCCCCP(=O)(O)O [Compound 13, 4-(2-aminophenylthio)-butylphosphonic acid]
IC50 ([1]; TSα reaction of Salmonella holoenzyme, read-out: I50 TS): 400 nM | activity in enzyme inhibitory assays, relative to inhibitors 1-5 [1]: weakest activity | Herbicidal Activity ([2]; Postemergence application): + (+ = 30-80% injury to one species) | activity in herbicidal (biological) assays, relative to inhibitors 1-5 [2]: weakest activity

O=C(Oc1ccccc1SCCCCP(=O)(O)O)c1ccccc1 [Phosphonic acid, {4-[(2-hydroxyphenyl)thio]butyl}-, benzoate (ester)]
TSα activity, % of control (Arabidopsis TS enzyme): 2.7 % of control | TSα activity, relative Vmax (Arabidopsis TS enzyme): 0.168 mOD/min | effect of tryptophan on the growth inhibitory effects (Synechocystis PCC 6803): completely reversed | Culture density (%) (Synechocystis PCC 6803; [3]): 136% | Culture density as A420 (Synechocystis PCC 6803; [3]): 0.726 | Culture density (%) (Synechocystis PCC 6803; [4]): 132% | Culture density as A420 (Synechocystis PCC 6803; [4]): 0.704 | Culture density (%) (Synechocystis PCC 6803; inhibitor 62 μM, no tryptophan): 84% | Culture density as A420 (Synechocystis PCC 6803; inhibitor 62 μM, no tryptophan): 0.449 | Culture density (%) (Synechocystis PCC 6803; [5]): 116% | Culture density as A420 (Synechocystis PCC 6803; [5]): 0.622 | Culture density (%) (Synechocystis PCC 6803; [6]): 102% | Culture density as A420 (Synechocystis PCC 6803; [6]): 0.544 | Culture density (%) (Synechocystis PCC 6803; [7]): 7% | Culture density as A420 (Synechocystis PCC 6803; [7]): 0.040

O=P(O)(O)CCCCc1c[nH]c2ccccc12 [Compound 7b, Phosphonic acid, [4-(indol-3-yl)butyl]-]
IC50 [1, 8]: 20000 nM | IC50 ([1]; TS inhibition I50, TSα reaction, Salmonella holoenzyme, 30 min at 37° C., 100 μM IGP): 20000 nM | Herbicidal Activity [2, 9]: weak (weak activity = maximum 20-30% injury on any species)

O=P(O)(O)C=CCCSc1cc(Br)ccc1O [Compound 31, Phosphonic acid, {4-[(5-bromo-2-hydroxyphenyl)thio]-1-butenyl}-]
IC50 [1, 10]: 260 nM | Herbicidal Activity ([2]; Postemergence application): + (+ = 30-80% injury to one species) | TSα activity, % of control (Arabidopsis TS enzyme): 16.1 % of control | TSα activity, relative Vmax (Arabidopsis TS enzyme): 0.238 mOD/min

O=P(O)(O)C=CCCSc1ccccc1O [Compound 28, {4-[(o-hydroxyphenyl)thio]-1-butenyl}phosphonic acid]
IC50 [1, 10]: 570 nM | Herbicidal Activity ([2]; Postemergence application): ++++ (++++ = 80-100% injury to more than three species) | herbicidal rating (Arabidopsis thaliana; herbicide 7.8 mM + 100 μM Trp): 0 | herbicidal rating (Arabidopsis thaliana; herbicide 7.8 mM, no Trp): 5C | herbicidal rating (Arabidopsis thaliana; herbicide 16 mM + 100 μM Trp): 0 | herbicidal rating (Arabidopsis thaliana; herbicide 16 mM, no Trp): 5C | herbicidal rating (Arabidopsis thaliana; herbicide 31 mM + 100 μM Trp): 0 | herbicidal rating (Arabidopsis thaliana; herbicide 31 mM, no Trp): 5C | herbicidal rating (Arabidopsis thaliana; herbicide 63 mM + 100 μM Trp): 0 | herbicidal rating (Arabidopsis thaliana; herbicide 63 mM, no Trp): 6C | herbicidal rating (Arabidopsis thaliana; herbicide 125 mM + 100 μM Trp): 0 | herbicidal rating (Arabidopsis thaliana; herbicide 125 mM, no Trp): 6C | herbicidal rating (Arabidopsis thaliana; herbicide 250 mM + 100 μM Trp): 0 | herbicidal rating (Arabidopsis thaliana; herbicide 250 mM, no Trp): 6C | herbicidal rating (Arabidopsis thaliana; herbicide 500 mM + 100 μM Trp): 0 | herbicidal rating (Arabidopsis thaliana; herbicide 500 mM, no Trp): 6C | herbicidal rating (Arabidopsis thaliana; herbicide 1000 mM + 100 μM Trp): 0 | herbicidal rating (Arabidopsis thaliana; herbicide 1000 mM, no Trp): 6C

O=P(O)(O)CCCc1c[nH]c2ccccc12 [Compound 7a]
IC50 [1, 8]: 125000 nM | Herbicidal Activity [2, 9]: inactive

CC(C)N.CC(C)N.O=P(O)(O)C=CCCSc1ccccc1O [Inhibitor 1, 4-(2-hydroxyphenylthio)-1-butenylphosphonic acid, 1:2 salt with isopropylamine]
activity in enzyme inhibitory assays, relative to inhibitors 1-5 [1]: highest activity | activity in herbicidal (biological) assays, relative to inhibitors 1-5 [2]: highest activity

O=P(O)(O)CCCC[S+]([O-])c1ccccc1O (stereo not shown) [Compound 32, {4-[(o-hydroxyphenyl)sulfinyl]butyl}phosphonic acid]
IC50 [1, 10]: 440 nM | Herbicidal Activity ([2]; Postemergence application): +++ (+++ = 80-100% injury to two species) | TSα activity, % of control (Arabidopsis TS enzyme): 1.5 % of control | TSα activity, relative Vmax (Arabidopsis TS enzyme): 0.095 mOD/min
